From paper PMC10690365, “Improved catalytic performance and molecular insight for lipoxygenase from Enterovibrio norvegicus via directed evolution” (Frontiers in Bioengineering and Biotechnology, 2023)
Substitutions are numbered along the chain they refer to.

Columns and labels:
[1] = molecular target: T1, EnLOX (wild-type, WT); lipoxygenase from Enterovibrio norvegicus (Enterovibrio norvegicus, UniProt A0A1I5T4S6); assay: absorbance at […] nm (hydroperoxide formation), Michaelis-Menten fit; format: biochemical; conditions: 20 mM Tris-HCl pH 8.0, 50 °C; substrate range printed as 10 to 300 mM (unit doubtful against the Km)
T1 construct: primer-encoded N-terminus MHRKKT
T1 sequence (A0A1I5T4S6 1-726): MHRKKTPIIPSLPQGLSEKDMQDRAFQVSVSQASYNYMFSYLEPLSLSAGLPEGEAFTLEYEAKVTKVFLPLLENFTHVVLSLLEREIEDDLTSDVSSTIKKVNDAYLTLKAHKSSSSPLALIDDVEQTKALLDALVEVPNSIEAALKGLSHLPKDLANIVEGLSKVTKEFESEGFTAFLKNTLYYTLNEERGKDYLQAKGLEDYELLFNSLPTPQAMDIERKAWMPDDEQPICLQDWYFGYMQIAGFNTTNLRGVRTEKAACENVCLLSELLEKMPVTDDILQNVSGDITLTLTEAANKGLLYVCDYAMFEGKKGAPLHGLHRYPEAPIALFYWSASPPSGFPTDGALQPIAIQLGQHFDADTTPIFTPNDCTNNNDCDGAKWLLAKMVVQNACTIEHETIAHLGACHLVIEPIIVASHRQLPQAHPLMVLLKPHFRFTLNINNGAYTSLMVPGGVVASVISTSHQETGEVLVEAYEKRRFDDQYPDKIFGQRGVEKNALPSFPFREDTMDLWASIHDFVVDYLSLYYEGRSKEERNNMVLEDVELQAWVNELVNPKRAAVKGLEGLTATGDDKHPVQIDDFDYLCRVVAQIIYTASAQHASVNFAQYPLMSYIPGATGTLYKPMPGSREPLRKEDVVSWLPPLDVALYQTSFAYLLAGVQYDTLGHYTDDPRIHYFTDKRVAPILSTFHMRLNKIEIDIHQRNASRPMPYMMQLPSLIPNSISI

[2] = molecular target: T2, EnLOX (wild-type, WT); lipoxygenase from Enterovibrio norvegicus (Enterovibrio norvegicus, UniProt A0A1I5T4S6, D95E/T99A/A121H/S142N/N444W/S613G, form not given); assay: as above; format: biochemical; conditions: 20 mM Tris-HCl pH 8.0, 50 °C; substrate range printed as 10 to 300 mM (unit doubtful against the Km); mutant EAHNWG (F-12E); printed nucleotide changes do not fully match the amino acid positions
T2 construct: primer-encoded N-terminus MHRKKT
T2 sequence (A0A1I5T4S6 1-726 D95E/T99A/A121H/S142N/N444W/S613G): T1 sequence (A0A1I5T4S6 1-726) with D95E, T99A, A121H, S142N, N444W, S613G

For `CCCCC/C=C\C/C=C\CCCCCCCC(=O)O` [linoleic acid], the Km [1] was 3.49 ± 0.21 µM and the Km [2] was 2.36 ± 0.14 µM.
